For seven compounds, EC50 results are on record in patent US20240043404A1 (AbbVie Inc., priority 2009, published 2024).

This assay concerns RS4;11 cells. In words: RS4;11 cell viability assay (CellTiter Glo).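 Further: acute lymphoblastic leukemia line RS4,11, EC50 derived from percentage of viable cells after treatment relative to untreated controls, cell killing taken as a measure of Bcl-2 inhibition.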 It counts as cell-based, human. The conditions noted are these: Homo sapiens, read-out: RS4. (Cellular ATP, detected with luciferase, serves as a proxy for viable cell number.)
Where [1] appears, read: RS4-11, 48 h, 50,000 cells per well, 10% human serum, 48 hours, 11 EC50 Values.

Like-named read-outs stand apart in the source and are kept apart here.

Protocol: The acute lymphoblastic leukemia (ALL) cell line RS4;11 was used as the primary human cell line to assess the cellular activity of Bcl-2 selective agents in vitro and their efficacy in vivo.
Cell cytotoxicity EC50 values were assessed using CellTiter Glo (Promega) according to the manufacturer's recommendations. The EC50 values were determined as a percentage of viable cells following treatment compared to the untreated control cells.

Take `CN1CCC(COc2ccc(S(=O)(=O)NC(=O)c3ccc(N4CCN(CC5=C(c6ccc(Cl)cc6)CC(C)(C)CC5)CC4)cc3Oc3cnc4[nH]ccc4c3)cc2[N+](=O)[O-])CC1` [Example 48, 4-(4-{[2-(4-chlorophenyl)-4,4-dimethylcyclohex-1-en-1-yl]methyl}piperazin-1-yl)-N-({4-[(1-methylpiperidin-4-yl)methoxy]-3-nitrophenyl}sulfonyl)-2-(1H-pyrrolo[2,3-b]pyridin-5-yloxy)benzamide]: under setting [1], the EC50 was 3.33 nM.
As for `CC1(C)CCC(CN2CCN(c3ccc(C(=O)NS(=O)(=O)c4ccc(N[C@@H]5CCOC5)c([N+](=O)[O-])c4)c(Oc4cnc5[nH]ccc5c4)c3)CC2)=C(c2ccc(Cl)cc2)C1` [Example 238, 4-(4-{[2-(4-chlorophenyl)-4,4-dimethylcyclohex-1-en-1-yl]methyl}piperazin-1-yl)-N-({3-nitro-4-[(3R)-tetrahydrofuran-3-ylamino]phenyl}sulfonyl)-2-(1H-pyrrolo[2,3-b]pyridin-5-yloxy)benzamide], the EC50 under setting [1] was found to be 103 nM.
Turning to `O=C(NS(=O)(=O)c1ccc(N[C@H]2CC[C@H](N3CCOCC3)CC2)c([N+](=O)[O-])c1)c1ccc(N2CCN(CC3=C(c4ccc(Cl)cc4)CCC4(CCCC4)C3)CC2)cc1Oc1cnc2[nH]ccc2c1` [Example 71, Trans-4-(4-{[8-(4-chlorophenyl)spiro[4.5]dec-7-en-7-yl]methyl}piperazin-1-yl)-N-({4-[(4-morpholin-4-ylcyclohexyl)amino]-3-nitrophenyl}sulfonyl)-2-(1H-pyrrolo[2,3-b]pyridin-5-yloxy)benzamide], the EC50 under setting [1] was 91.6 nM.
As to `CC1(C)CCC(CC2CCN(c3ccc(C(=O)NS(=O)(=O)c4ccc(NCC5CCOCC5)c([N+](=O)[O-])c4)c(Oc4cnc5[nH]ccc5c4)c3)CC2)C(c2ccc(Cl)cc2)C1` (stereo not drawn) [Example 296, 4-(4-{[2-(4-chlorophenyl)-4,4-dimethylcyclohexyl]methyl}piperidin-1-yl)-N-({3-nitro-4-[(tetrahydro-2H-pyran-4-ylmethyl)amino]phenyl}sulfonyl)-2-(1H-pyrrolo[2,3-b]pyridin-5-yloxy)benzamide], the EC50 under setting [1] amounted to 769 nM.
`CC1(C)CCC(CN2CCN(c3ccc(C(=O)NS(=O)(=O)c4ccc(NC[C@@H]5CCN(C6COC6)C5)c([N+](=O)[O-])c4)c(Oc4cnc5[nH]ccc5c4)c3)CC2)=C(c2ccc(Cl)cc2)C1` [Example 209, 4-(4-{[2-(4-chlorophenyl)-4,4-dimethylcyclohex-1-en-1-yl]methyl}piperazin-1-yl)-N-{[3-nitro-4-({[(3S)-1-oxetan-3-ylpyrrolidin-3-yl]methyl}amino)phenyl]sulfonyl}-2-(1H-pyrrolo[2,3-b]pyridin-5-yloxy)benzamide]: the EC50 under setting [1] worked out at 4.5 nM.
Consider `CC1(C)CC(c2ccc(Cl)cc2)=C(CN2CCN(c3ccc(C(=O)NS(=O)(=O)c4ccc(NCC5CCOCC5)c([N+](=O)[O-])c4)c(Oc4ccc5[nH]ccc5c4)c3)CC2)CO1` [Example 23, 4-(4-{[4-(4-chlorophenyl)-6,6-dimethyl-5,6-dihydro-2H-pyran-3-yl]methyl}piperazin-1-yl)-2-(1H-indol-5-yloxy)-N-({3-nitro-4-[(tetrahydro-2H-pyran-4-ylmethyl)amino]phenyl}sulfonyl)benzamide], for which the EC50 is, setting by setting: under setting [1], 45 nM; (RS4-11, Table 4, selected compounds in U.S. Pat. Application No. 12/631404, 11 EC50) 45 nM; (RS4-11, Table 5, direct comparison Z=N with corresponding analogs Z=C, 11 EC50) 45 nM.
With `COC(=O)N1CCOC(CNc2ccc(S(=O)(=O)NC(=O)c3ccc(N4CCN(CC5=C(c6ccc(Cl)cc6)CC(C)(C)CC5)CC4)cc3Oc3cnc4[nH]ccc4c3)cc2[N+](=O)[O-])C1` (stereo not drawn) [Example 317, methyl 2-{[(4-{[4-(4-{[2-(4-chlorophenyl)-4,4-dimethylcyclohex-1-en-1-yl]methyl}piperazin-1-yl)-2-(1H-pyrrolo[2,3-b]pyridin-5-yloxy)benzoyl]sulfamoyl}-2-nitrophenyl)amino]methyl}morpholine-4-carboxylate], the EC50 under setting [1] is 13.3 nM.
